Data on 64 compounds can be found in PubChem BioAssay AID652213 (The Scripps Research Institute Molecular Screening Center, 2013).

The structures appear in SMILES notation. The source made the active and inactive calls. No rule for the calls is given here.

For this assay, the target named is Serine/threonine-protein phosphatase PP1-alpha catalytic subunit (Homo sapiens) (UniProt P62136). Nature of the assay: PP1 inhibitors, OMFP dephosphorylation, late-stage follow-up, biochemical, fluorescence, OMFP substrate, set 3 (AID 652213). To be noted: purified PP1, OMFP dephosphorylation, at 6.7 µM (top of the series).
Chain of Serine/threonine-protein phosphatase PP1-alpha catalytic subunit (Homo sapiens) (P62136 whole entry, looked up): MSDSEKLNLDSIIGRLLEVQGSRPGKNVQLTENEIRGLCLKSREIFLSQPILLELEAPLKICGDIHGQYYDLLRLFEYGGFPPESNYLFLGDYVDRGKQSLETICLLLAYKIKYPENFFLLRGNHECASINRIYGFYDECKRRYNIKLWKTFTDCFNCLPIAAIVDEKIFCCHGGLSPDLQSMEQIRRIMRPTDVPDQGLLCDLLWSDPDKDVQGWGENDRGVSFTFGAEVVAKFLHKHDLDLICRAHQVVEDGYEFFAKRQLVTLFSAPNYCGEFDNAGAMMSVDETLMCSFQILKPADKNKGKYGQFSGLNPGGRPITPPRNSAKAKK
As for `CN1CCN(C(c2ccccn2)c2cc(Cl)c3cccnc3c2O)CC1` (centres undefined), the activity is 69.7%. The result for `O=C(NC1(O)C(=O)c2ccccc2C1=O)c1ccc(C(F)(F)F)cc1` reads 8.58% (inactive); that for `Clc1ccc(-n2nnnc2-c2cnc(-c3ccccn3)nc2-c2cccs2)cc1`, 66.6%; that for `O=C(O)c1cc(-c2ccc(Cl)cc2)n(-c2cccc(Cl)c2)n1`, 55.6%. Consider `CCOC(=O)c1cnc(-n2nc(C)cc2C)nc1NCc1ccccc1`, for which the activity is 62.5%.

As to `Nc1cc2nsnc2cc1Br`, the activity is -10.1% (inactive).

As to `CCCN(CC1CC1)c1nc(N)c2c(N)nc(OC)cc2c1C#N`, the activity was 0.2% (inactive). For `CCCCn1c(NC(=O)c2ccco2)c(C(=O)OCC)c2nc3ccccc3nc21`, the activity was -8.57% (inactive).

With `Oc1cccc(/C=N/Nc2cc(N3CCCC3)nc(N3CCCC3)n2)c1`, the activity is 18.5% (inactive). To `Cc1ccc(C(=O)NC2(O)C(=O)c3ccccc3C2=O)cc1C` belongs 1.19% (inactive). In the case of `N#Cc1c(N2CCCC(O)C2)nc(N)c2c(N)nc3c(c12)CC(=O)N3C12CC3CC(CC(C3)C1)C2` (centres undefined), the activity is 5.14% (inactive). The result for `CCOC(=O)c1cnc(-n2nc(C)cc2C)nc1NC(C)c1ccccc1` (centres undefined) reads 69.4%; that for `N#Cc1c(-c2ccc(Cl)cc2)cc(-c2cccs2)nc1SCC(=O)O`, 45.4%; that for `O=S(=O)(Cc1cc(NCc2ccccc2)nc(-c2ccccn2)n1)c1ccccc1`, 50%. To `CCn1c2ccccc2c2cc(NC(=O)COC(=O)c3ccc(NC(=O)CC#N)cc3)ccc21` belongs 49%; to `Cc1ccc(-n2nc(C(=O)O)cc2-c2ccc(Cl)cc2)cc1`, 54.8%; to `O=C(Nc1nc(-c2ccccn2)cs1)C1CC(=O)N(c2ccc3c(c2)OCCO3)C1` (centres undefined), 42.3%. To `O=C(NC1(O)C(=O)c2ccccc2C1=O)c1ccccc1` belongs -6.67% (inactive); to `Cc1ccc(C(=O)NNc2cc(N3CCCC3)nc(N3CCCC3)n2)cc1`, 4.62% (inactive); to `COc1cnc(-c2ccccn2)nc1Sc1ccc(Cl)cc1`, 54.6%. Consider `O=C1Nc2ccccc2N2CCCC12` (centres undefined), for which the activity is -7.49% (inactive).

For `COc1cnc(-c2ccccn2)nc1Sc1ccc(F)cc1`, the activity was 53.8%.

For `CCOC(=O)c1cnc(-n2nc(C)cc2C)nc1NCCc1ccccc1`, the activity is 68.3%. For `Oc1ccccc1/C=N/Nc1cc(N2CCCC2)nc(N2CCCC2)n1`, the activity is 4.03% (inactive). To `COc1ccc(NC(=O)C2C3CCC(O3)C2C(=O)O)c(OC)c1` (centres undefined) belongs 35.3%.

Turning to `CC(=O)C(C(C)=O)C1(O)C(=O)c2ccccc2C1=O`, the activity is 1.17% (inactive).

On to `CCOC(=O)c1cnc(-n2cc(C)cn2)nc1NCc1ccc2c(c1)OCO2`, for which the activity is 16.5% (inactive).

As for `Cc1[nH]n(-c2ccccc2)c(=O)c1C(c1ccc([N+](=O)[O-])cc1)c1c(C)[nH]n(-c2ccccc2)c1=O`, the activity was -6.69% (inactive). To `Nc1nc(-c2ccccn2)nc(N)c1Cc1ccc(Cl)cc1Cl` belongs 67.1%; to `COc1ccc(OCCCC(=O)Nc2nc(-c3ccccn3)cs2)cc1`, 26.8%. The result for `O=C(O)C1C2CCC(O2)C1C(=O)NC1CCCCC1` (centres undefined) reads 26.2% (inactive); that for `COc1cnc(-c2ccccn2)nc1Sc1ccccc1`, 64.9%; that for `COc1ccc2c(Cl)c(C(=O)N/N=C/c3ccc4c(c3)OCO4)sc2c1`, 20.2% (inactive). On to `Cc1nnc(NC(=O)C2C3C=CC(O3)C2C(=O)O)s1` (centres undefined), for which the activity is 2.61% (inactive). The result for `COc1cnc(-c2ccccn2)nc1Oc1cccc(C(F)(F)F)c1` reads -4.64% (inactive); that for `COc1cc(Br)c(C(=O)c2nccc3cc(OC)c(OC)cc23)cc1OC`, -11.4% (inactive); that for `COc1cnc(-c2ccccn2)nc1Sc1cccc(Cl)c1`, 64.1%.

Regarding `COc1cnc(-c2ccccn2)nc1Oc1cccc(Cl)c1`, the activity was 46.4%. Take `COc1cnc(-c2ccccn2)nc1Sc1ccc(C)cc1`: the activity is 62.9%. As to `COc1ccccc1Sc1nc(-c2ccccn2)ncc1OC`, the activity was 63.1%.

For the compound `CCOC(=O)c1nn(-c2ccc(C)cc2)c(=O)c2c(N)scc12`, the activity is 4.75% (inactive). In the case of `COc1ccc(Cn2c(N)c(C(=O)NCc3ccco3)c3nc4ccccc4nc32)cc1OC`, the activity was 3.93% (inactive). Consider `CCOc1ccc(NC(=S)Nc2ccc3nsnc3c2)cc1`, for which the activity is 2.39% (inactive). On to `CCOC(=O)c1sc2nc3c(SCC(=O)O)cc(C(=O)c4cc(F)ccc4O)cn3c(=O)c2c1C`, for which the activity is 65.9%. The result for `CCCCN(CC)c1nc(N)c2c(N)nc(OCC)cc2c1C#N` reads 4.31% (inactive); that for `O=C1CCCC2=C1C1(O)C(=O)c3ccccc3C1(O)O2` (centres undefined), 3.07% (inactive); that for `COc1ccc(Cl)cc1C(=O)Nc1cccc(-c2ccc3nncn3n2)c1`, 56.6%. For the compound `O=c1[nH]c(Nc2ccccc2)cc2ccccc12`, the activity is 4.07% (inactive). Take `Oc1ccc(/C=N/Nc2cc(N3CCOCC3)nc(N3CCOCC3)n2)c(O)c1`: the activity is 7.02% (inactive). To `COc1ccc(C(=O)c2nccc3cc(OC)c(OC)cc23)cc1OC` belongs 5.53% (inactive); to `COc1ccc(CN2C(=O)Cc3c2nc(N)c2c(N)nc(N4CCCCC4)c(C#N)c32)cc1`, -0.66% (inactive); to `COc1cnc(-c2ccccn2)nc1Sc1ccccc1Cl`, 68.7%.

`c1ccc(Nc2nc(-c3ccccn3)cs2)cc1`: the activity is 62%.

With `c1ccc(-c2nccc(-c3ccc(-n4cnc5ccccc54)cc3)n2)nc1`, the activity was 62.4%. Regarding `COc1ccc(Sc2nc(-c3ccccn3)ncc2OC)cc1`, the activity is 72.4%. As for `CCOC(=O)c1sc(N2C(=O)C(O)=C(C(=O)c3ccco3)C2c2cccc([N+](=O)[O-])c2)nc1C` (centres undefined), the activity was 26.6%.

`O=C(NC1(O)C(=O)c2ccccc2C1=O)c1c(Cl)cccc1Cl`: the activity was -3.06% (inactive). To `CC(C)(CS(=O)(=O)[O-])NC(=O)CC[N+](C)(C)CCO` belongs 49.7%; to `O=C(O)c1cc(-c2ccc(Cl)c(Cl)c2)n(-c2ccc(F)cc2)n1`, 57.7%; to `Cc1cc(C)c(S(=O)(=O)/N=C2\C=C(Sc3ncn[nH]3)C(=O)c3ccccc32)cc1C`, 5.84% (inactive). With `O=C(O)c1cc(-c2ccc(Cl)c(Cl)c2)n(-c2ccccc2)n1`, the activity was 59.9%. With `CCOC(=O)C1=C(C)OC2(O)c3ccccc3C(=O)C12O` (centres undefined), the activity was 27.1% (inactive). To `COc1ccc(NC(=S)Nc2ccc3nsnc3c2)cc1` belongs -1.36% (inactive); to `CCOC(=O)c1cnc(-n2nc(C)cc2C)nc1NC1CCCCC1`, 59.7%.
